Source: patent publication US12180193B2, “Accelerating fibrosarcoma protein degrading compounds and associated methods of use” (Arvinas Operations, Inc., priority 2020, dated 2024)
Read-outs that look alike come from different tables or passages of the source.

Assays:
BRAF V600E = target: T1, BRAF V600E (Homo sapiens, UniProt P15056, V600E); assay: Cellular assay of target protein degradation, T-Rex 293 cells stably transfected with HA-BRAF_V600E (HA immunofluorescence, high content imaging); format: cell-based
T1 construct: expressed in transfected cells
T1 sequence (P15056 whole entry V600E): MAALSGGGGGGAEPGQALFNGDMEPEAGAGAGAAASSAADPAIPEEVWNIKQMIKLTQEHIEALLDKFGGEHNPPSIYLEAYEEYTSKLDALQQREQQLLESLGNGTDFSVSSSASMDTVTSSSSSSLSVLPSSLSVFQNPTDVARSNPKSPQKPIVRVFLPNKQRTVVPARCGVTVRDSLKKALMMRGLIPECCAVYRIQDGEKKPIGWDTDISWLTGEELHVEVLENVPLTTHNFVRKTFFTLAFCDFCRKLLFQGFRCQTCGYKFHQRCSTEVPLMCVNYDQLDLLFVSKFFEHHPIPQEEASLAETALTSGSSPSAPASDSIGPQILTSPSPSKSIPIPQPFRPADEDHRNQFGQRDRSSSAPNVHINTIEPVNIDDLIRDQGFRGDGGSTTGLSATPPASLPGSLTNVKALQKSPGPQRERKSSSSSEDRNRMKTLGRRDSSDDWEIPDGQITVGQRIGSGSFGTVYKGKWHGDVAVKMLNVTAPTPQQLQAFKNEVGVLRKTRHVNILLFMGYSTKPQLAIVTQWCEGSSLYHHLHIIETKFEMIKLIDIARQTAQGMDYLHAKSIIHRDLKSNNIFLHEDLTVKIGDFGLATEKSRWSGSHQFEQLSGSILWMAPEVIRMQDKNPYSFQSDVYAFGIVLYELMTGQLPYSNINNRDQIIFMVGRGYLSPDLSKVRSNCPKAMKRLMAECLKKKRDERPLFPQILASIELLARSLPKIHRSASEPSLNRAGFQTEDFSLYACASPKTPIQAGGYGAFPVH
Method in brief: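 Degradation of the HA-tagged construct is measured after 24 h treatment at 37 °C across 1 μM to 0.1 nM in 0.1% DMSO, in doxycycline-induced (1 ng/mL) cells. DC50 and Dmax come from HA fluorescence imaging.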

BRAF G466V = target: T2, BRAF G466V (Homo sapiens, UniProt P15056, G466V); assay: Cellular assay of target protein degradation, T-Rex 293 cells stably transfected with HA-BRAF G466V (HA immunofluorescence, high content imaging); format: cell-based
T2 construct: expressed in transfected cells
T2 sequence (P15056 whole entry G466V): as the sequence (P15056 whole entry V600E) above, with G466V, E600V counted along it
Method in brief: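 Dose range spans 30 nM to 3 pM (0.1% DMSO) over 24 hours at 37° C, in cells induced with 0.75 ng/mL doxycycline. Fixed cells are probed with anti-HA antibody overnight at 4° C, then imaged; half-maximal degradation and maximum degradation are derived.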

[1] = maximum degradation observed, T-Rex 293 HA-BRAF V600E
[2] = maximum degradation observed, T-Rex 293 HA-BRAF G466V
[3] = half maximal degradation, T-Rex 293 HA-BRAF V600E; read-out: BRaf V600E DC50
[4] = half maximal degradation, T-Rex 293 HA-BRAF G466V; read-out: BRaf G466V DC50

Dmax (BRAF V600E; [1]) | Dmax (BRAF G466V; [2]) | DC50 (BRAF V600E; [3]) | DC50 (BRAF G466V; [4]) | SMILES | DC50 (BRAF V600E; read-out: BRaf V600E DC50; half maximal degradation, T-Rex 293 HA-BRAF V600E) | DC50 (BRAF G466V; read-out: BRaf G466V DC50; half maximal degradation, T-Rex 293 HA-BRAF G466V)
35 to 70% | > 70% | 0.005 to 0.05 µM | 0.001 to 0.01 µM | O=C1CC[C@H](N2Cc3cc(C4CCN(CC5CCN(c6ccc(-c7cnc8[nH]cc(C(=O)c9c(F)ccc(NS(=O)(=O)N%10CCC(F)(F)C%10)c9F)c8c7)cc6)CC5)CC4)ccc3C2=O)C(=O)N1 [Compound 232, N-{3-[5-(4-{4-[(4-{2-[(3S)-2,6-dioxopiperidin-3-yl]-1-oxo-2,3-dihydro-1H-isoindol-5-yl}piperidin-1-yl)methyl]piperidin-1-yl}phenyl)-1H-pyrrolo[2,3-b]pyridine-3-carbonyl]-2,4-difluorophenyl}-3,3-difluoropyrrolidine-1-sulfonamide] |  | 
35 to 70% | 35 to 70% | 0.005 to 0.05 µM | 0.001 to 0.01 µM | O=C1CC[C@H](N2Cc3cc(C4CCN(CC5CCN(c6ccc(-c7cnc8[nH]cc(C(=O)c9c(F)ccc(NS(=O)(=O)N%10CC[C@@H](O)C%10)c9F)c8c7)cc6)CC5)CC4)ccc3C2=O)C(=O)N1 [Compound 278, (3R)-N-{3-[5-(4-{4-[(4-{2-[(3S)-2,6-dioxopiperidin-3-yl]-1-oxo-2,3-dihydro-1H-isoindol-5-yl}piperidin-1-yl)methyl]piperidin-1-yl}phenyl)-1H-pyrrolo [2,3-b]pyridine-3-carbonyl]-2,4-difluorophenyl}-3-hydroxypyrrolidine-1-sulfonamide] |  | 
35 to 70% | > 70% | 0.005 to 0.05 µM | 0.001 to 0.01 µM | O=C1CCC(NC(=O)N2CCCc3c(N4CCN(CC5CCN(c6ccc(-c7cnc8[nH]cc(C(=O)c9c(F)ccc(NS(=O)(=O)N%10CC[C@@H](F)C%10)c9F)c8c7)cc6)CC5)CC4)ccnc32)C(=O)N1 (stereo partly drawn) [Compound 370, 5-(4-{[1-(4-{3-[2,6-difluoro-3-({[(3R)-3-fluoropyrrolidin-1-yl]sulfonyl}amino)benzoyl]-1H-pyrrolo[2,3-b]pyridin-5-yl}phenyl)piperidin-4-yl]methyl}piperazin-1-yl)-N-(2,6-dioxopiperidin-3-yl)-1,2,3,4-tetrahydro-1,8-naphthyridine-1-carboxamide] |  | 
 | < 35% | > 0.5 µM | < 0.001 µM | Nc1ccc(F)c(C(=O)c2c[nH]c3ncc(-c4ccc(N5CCC(CN6CCC(c7ccc8c(c7)CN([C@H]7CCC(=O)NC7=O)C8=O)CC6)CC5)cc4)cc23)c1F [Compound 254, (3S)-3-(5-{1-[(1-{4-[3-(3-amino-2,6-difluorobenzoyl)-1H-pyrrolo[2,3-b]pyridin-5-yl]phenyl}piperidin-4-yl)methyl]piperidin-4-yl}-1-oxo-2,3-dihydro-1H-isoindol-2-yl) piperidine-2,6-dione] |  | 
35 to 70% | 35 to 70% | 0.005 to 0.05 µM | < 0.001 µM | O=C1CCC(N2Cc3cc(N4CCC(CN5CCN(c6ccc(-c7cnc8[nH]cc(C(=O)c9c(F)ccc(NS(=O)(=O)N%10CC[C@@H](F)C%10)c9F)c8c7)cc6F)CC5)CC4)ccc3C2=O)C(=O)N1 (stereo partly drawn) [Compound 11, (3R)-N-[3-(5-{4-[4-({1-[2-(2,6-dioxopiperidin-3-yl)-1-oxo-2,3-dihydro-1H-isoindol-5-yl]piperidin-4-yl}methyl)piperazin-1-yl]-3-fluorophenyl}-1H-pyrrolo[2,3-b]pyridine-3-carbonyl)-2,4-difluorophenyl]-3-fluoropyrrolidine-1-sulfonamide] |  | 
35 to 70% | > 70% | 0.005 to 0.05 µM | 0.001 to 0.01 µM | O=C1CCC(N2Cc3cc(N4CCC(CN5CC[C@@H]6CN(c7ccc(-c8cnc9[nH]cc(C(=O)c%10c(F)ccc(NS(=O)(=O)N%11CC[C@@H](F)C%11)c%10F)c9c8)cc7)C[C@@H]6C5)CC4)ccc3C2=O)C(=O)N1 (some centres unmarked) [Compound 309] |  | 
< 35% | > 70% | 0.005 to 0.05 µM | 0.01 to 0.03 µM | O=C1CC[C@H](N2Cc3cc(C4CCN(CC5CCN(c6ccc(-c7cnc8[nH]cc(C(=O)c9c(F)ccc(NS(=O)(=O)N%10CC(O)C%10)c9F)c8c7)cc6)CC5)CC4)ccc3C2=O)C(=O)N1 [Compound 279, N-{3-[5-(4-{4-[(4-{2-[(3S)-2,6-dioxopiperidin-3-yl]-1-oxo-2,3-dihydro-1H-isoindol-5-yl}piperidin-1-yl)methyl]piperidin-1-yl}phenyl)-1H-pyrrolo[2,3-b]pyridine-3-carbonyl]-2,4-difluorophenyl}-3-hydroxyazetidine-1-sulfonamide] |  | 
35 to 70% | 35 to 70% | 0.005 to 0.05 µM | 0.001 to 0.01 µM | COc1cc(N2CC3(CN(CCc4ccc(-c5cnc6[nH]cc(C(=O)c7c(F)ccc(NS(=O)(=O)N8CC[C@@H](F)C8)c7F)c6c5)cc4)C3)C2)cc2c1C(=O)N(C1CCC(=O)NC1=O)C2 (stereo partly drawn) [Compound 21, (3R)-N-(3-{5-[4-(2-{6-[2-(2,6-dioxopiperidin-3-yl)-7-methoxy-1-oxo-2,3-dihydro-1H-isoindol-5-yl]-2,6-diazaspiro[3.3]heptan-2-yl}ethyl)phenyl]-1H-pyrrolo[2,3-b]pyridine-3-carbonyl}-2,4-difluorophenyl)-3-fluoropyrrolidine-1-sulfonamide] |  | 
35 to 70% | 35 to 70% | 0.005 to 0.05 µM | < 0.001 µM | O=C1CCC(N2Cc3cc(CCCCCN4CCN(c5ccc(-c6cnc7[nH]cc(C(=O)c8c(F)ccc(NS(=O)(=O)N9CC[C@@H](F)C9)c8F)c7c6)cc5)CC4)ccc3C2=O)C(=O)N1 (stereo partly drawn) [Compound 64, (3R)-N-(3-{5-[4-(4-{5-[2-(2,6-dioxopiperidin-3-yl)-1-oxo-2,3-dihydro-1H-isoindol-5-yl]pentyl}piperazin-1-yl)phenyl]-1H-pyrrolo[2,3-b]pyridine-3-carbonyl}-2,4-difluorophenyl)-3-fluoropyrrolidine-1-sulfonamide] |  | 
35 to 70% |  | 0.005 to 0.05 µM | > 0.03 µM | O=C1CC[C@H](N2Cc3cc(CN4C[C@@H]5CN(c6ccc(-c7cnc8[nH]cc(C(=O)c9c(F)ccc(NS(=O)(=O)N%10CC[C@@H](F)C%10)c9F)c8c7)cc6)C[C@@H]5C4)ccc3C2=O)C(=O)N1 [Compound 76, (3R)-N-[3-(5-{4-[(3aR,6aS)-5-({2-[(3S)-2,6-dioxopiperidin-3-yl]-1-oxo-2,3-dihydro-1H-isoindol-5-yl}methyl)-octahydropyrrolo[3,4-c]pyrrol-2-yl]phenyl}-1H-pyrrolo[2,3-b]pyridine-3-carbonyl)-2,4-difluorophenyl]-3-fluoropyrrolidine-1-sulfonamide] |  | 
> 70% |  | > 0.5 µM | > 0.03 µM | O=C1CCC(N2Cc3cc(CN4CCN(c5ccc(-c6cnc7[nH]cc(C(=O)c8c(F)ccc(NS(=O)(=O)N9CC[C@@H](F)C9)c8F)c7c6)cc5)C[C@@H]4CO)ccc3C2=O)C(=O)N1 (stereo partly drawn) [Compound 78, (3R)-N-[3-(5-{4-[(3R)-4-{[2-(2,6-dioxopiperidin-3-yl)-1-oxo-2,3-dihydro-1H-isoindol-5-yl]methyl}-3-(hydroxymethyl)piperazin-1-yl]phenyl}-1H-pyrrolo [2,3-b]pyridine-3-carbonyl)-2,4-difluorophenyl]-3-fluoropyrrolidine-1-sulfonamide] |  | 
35 to 70% | 35 to 70% | 0.005 to 0.05 µM | 0.001 to 0.01 µM | CN(c1ncc(-c2cnc3[nH]cc(C(=O)c4c(F)ccc(NS(=O)(=O)N5CC[C@@H](F)C5)c4F)c3c2)cn1)C1CCN(CC2CCN(c3ccc4c(c3)CN([C@H]3CCC(=O)NC3=O)C4=O)CC2)CC1 [Compound 287, (3R)-N-(3-{5-[2-({1-[(1-{2-[(3S)-2,6-dioxopiperidin-3-yl]-1-oxo-2,3-dihydro-1H-isoindol-5-yl}piperidin-4-yl)methyl]piperidin-4-yl}(methyl)amino)pyrimidin-5-yl]-1H-pyrrolo[2,3-b]pyridine-3-carbonyl}-2,4-difluorophenyl)-3-fluoropyrrolidine-1-sulfonamide] |  | 
35 to 70% | 35 to 70% | 0.005 to 0.05 µM | < 0.001 µM | O=C1CC[C@@H](N2Cc3cc(/C=C/CN4CC5(C4)CN(c4ccc(-c6cnc7[nH]cc(C(=O)c8c(F)ccc(NS(=O)(=O)N9CC[C@@H](F)C9)c8F)c7c6)cc4)C5)ccc3C2=O)C(=O)N1 [Compound 39, (3R)-N-{3-[5-(4-{6-[(2E)-3-{2-[(3R)-2,6-dioxopiperidin-3-yl]-1-oxo-2,3-dihydro-1H-isoindol-5-yl}prop-2-en-1-yl]-2,6-diazaspiro[3.3]heptan-2-yl}phenyl)-1H-pyrrolo[2,3-b]pyridine-3-carbonyl]-2,4-difluorophenyl}-3-fluoropyrrolidine-1-sulfonamide] |  | 

SMILES | Dmax (BRAF V600E; [1]) | Dmax (BRAF G466V; [2]) | DC50 (BRAF V600E; [3]) | DC50 (BRAF G466V; [4]) | DC50 (BRAF V600E; read-out: BRaf V600E DC50; half maximal degradation, T-Rex 293 HA-BRAF V600E) | DC50 (BRAF G466V; read-out: BRaf G466V DC50; half maximal degradation, T-Rex 293 HA-BRAF G466V)
CC(C)(C1CCN(c2ccc(-c3cnc4[nH]cc(C(=O)c5c(F)ccc(NS(=O)(=O)N6CC[C@@H](F)C6)c5F)c4c3)cc2)CC1)N1CC2(CN(c3ccc4c(c3)CN(C3CCC(=O)NC3=O)C4=O)C2)C1 (stereo partly drawn) [Compound 60, (3R)-N-[3-(5-{4-[4-(2-{6-[2-(2,6-dioxopiperidin-3-yl)-1-oxo-2,3-dihydro-1H-isoindol-5-yl]-2,6-diazaspiro[3.3]heptan-2-yl}propan-2-yl)piperidin-1-yl]phenyl}-1H-pyrrolo[2,3-b]pyridine-3-carbonyl)-2,4-difluorophenyl]-3-fluoropyrrolidine-1-sulfonamide] | 35 to 70% | > 70% |  |  | 0.005 to 0.05 µM | 0.001 to 0.01 µM
